Data on 36 compounds can be found in patent US20230331720A1, “MEDIUM- OR MACRO-CYCLIC BENZYL-SUBSTITUTED HETEROCYCLE DERIVATIVES AND THEIR USES AS OREXIN-2 RECEPTOR AGONISTS” (Orexia Therapeutics Limited, priority 2020, published 2023).

Each structure is given as a SMILES string.

The first assay deals with T1, human orexin type 2 receptor (hOX2R) (Homo sapiens, UniProt O43614).
T1 construct: expressed in transfected cells
T1 sequence (O43614 1-444): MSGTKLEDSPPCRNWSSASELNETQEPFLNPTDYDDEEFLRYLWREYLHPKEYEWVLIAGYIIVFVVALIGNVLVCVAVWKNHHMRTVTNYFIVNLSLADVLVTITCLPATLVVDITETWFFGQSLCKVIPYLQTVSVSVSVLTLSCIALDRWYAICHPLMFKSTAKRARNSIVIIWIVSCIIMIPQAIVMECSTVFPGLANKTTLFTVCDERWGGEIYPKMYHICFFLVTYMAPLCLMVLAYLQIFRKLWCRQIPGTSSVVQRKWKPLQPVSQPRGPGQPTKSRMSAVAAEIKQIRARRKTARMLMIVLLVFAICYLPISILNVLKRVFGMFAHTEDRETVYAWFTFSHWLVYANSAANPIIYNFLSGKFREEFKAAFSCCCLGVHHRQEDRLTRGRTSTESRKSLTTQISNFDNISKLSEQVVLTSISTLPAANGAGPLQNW
Description: Orexin type 2 receptor agonist activity, intracellular Ca2+ (FLIPR TETRA). It counts as cell-based. To be noted: CHO cells expressing hOX2R; Ca2+ fluorescence area. The protocol: Stable cell line generation. Obtainment of cells stably expressing either human orexin type 2 or human orexin type 1 receptor; to obtain a stable cell line the Orexin receptor cDNA was inserted into pcDNA3.1(+) plasmid vector and clones identified by G418 drug resistance selection. […] A single clone for OX2R-CHO and OX1R-CHO were grown in bulk and frozen to generate a cell bank for routine screening.
Measurement of orexin type 2 receptor agonist activity. Chinese hamster ovary (CHO) cells expressing human orexin type 2 receptor (hOX2R) or human orexin type 1 receptor (hOX1R) were seeded in each well of 384 well black clear bottom plates (BD Flacon) at 10,000 cells per well and cultured for 24 hr in an Ham's F12 (Gibco) medium containing 10% fetal calf serum (Sigma Aldrich) under the conditions of 37° C., 5% CO2. After removal of the medium, 50 μl of assay buffer 1 (0.1% bovine serum albumin (Sigma Aldrich), 20 mM HEPES (Molecular Dimensions), […] probenecid (Sigma Aldrich), 1× Calcium 5 dye (Molecular Devices) in Hank's balanced salt solution (Invitrogen)) was added, and the cells were incubated for 60 min under the conditions of 37° C., 5% CO2. A test compound was dissolved in dimethyl sulfoxide (Sigma Aldrich) to 10 mM, and then diluted with assay buffer 2 (20 mM HEPES, Hank's balanced salt solution, 0.1% bovine serum albumin). For the reaction, a test compound solution (10 μl) was added using Fluorescent Imaging Plate Reader TETRA (FLIPR TETRA: manufactured by Molecular Devices), a fluorescence value (excitation wavelength 488 nm, measurement wavelength 570 nm) of each well was measured every one second for 2 min, and the agonist activity was determined using the area of the fluorescence value as an indicator of intracellular Ca^2+ concentration. The agonist activity of the test compound was calculated assuming that the fluorescence value of the well added with only the dilution buffer was 0% and the fluorescence value of the well added with 10 nM human orexin A (Tocris) buffer was 100%. As used herein, Emax indicates the value at 10 μM concentration when orexin A is converted to a full agonist (maximum value of agonist activity: 100%).
Regarding `CCS(=O)(=O)NC1CCN2C(=O)OCCOc3ccccc3-c3cccc(c3)CC12` (stereo not drawn) [Compound A1-22, N-(5-oxo-6,9-dioxa-4(2,1)-pyrrolidina-1(1,2),2(1.3)-dibenzenacyclo-nonaphane-4^3-yl)ethanesulfonamide], the “hOx2 pEC50” value is on record as “++ (7.0≤“++”<8.0)”.

As for `CCS(=O)(=O)NC1CCN2C(=O)NCCCCCOc3ccccc3-c3cccc(c3)CC12` (stereo not drawn) [Compound A1-23, N-(5-oxo-12-oxa-6-aza-4(2,1)-pyrrolidina-1(1,2),2(1,3)-dibenzenacyclo-dodecaphane-43-yl)ethanesulfonamide], the “hOx2 pEC50” value is recorded as “+ (6.0≤“+”<7.0)”.

Staying with this assay, now noted: CHO cells expressing hOX2R; Ca2+ fluorescence area; read-out: hOx2 pEC50 (converted).
Regarding `CCS(=O)(=O)NC1CCN2C(=O)OCC/C=C\Cc3ccccc3-c3cccc(c3)CC12` (racemic) [Compound A1-56, (E/Z)—N-(5-oxo-6-oxa-4(2,1)-pyrrolidina-1(1,2),2(1,3)-dibenzenacyclo-undecaphan-9-en-4^3-yl)ethanesulfonamide], the EC50 is 100 to 1000 nM.

As for `CCS(=O)(=O)N[C@H]1CCN2C(=O)NCCCCCc3ccccc3-c3cccc(c3)C[C@@H]12` (single isomer, unassigned) [Compound A1-42, N-((4^2S,4^3S)-5-oxo-6-aza-4(2,1)-pyrrolidina-1(1,2),2(1,3)-dibenzenacycloundecaphane-4^3-yl)ethanesulfonamide], the EC50 is 0.1 to 1 nM.

As to `CCS(=O)(=O)N[C@@H]1CCN2C(=O)NCCCCCc3ccccc3-c3cccc(c3)C[C@H]12` (single isomer, unassigned) [Compound A1-43, N-((4^2R,4^3R)-5-oxo-6-aza-4(2,1)-pyrrolidina-1(1,2),2(1,3)-dibenzenacycloundecaphane-4^3-yl)ethanesulfonamide], the EC50 is 100 to 1000 nM.

For `CS(=O)(=O)N[C@@H]1CCCN2C(=O)NCCOc3ccccc3-c3cccc(c3)C[C@H]12` [Compound A1-3, N-((4^2R,4^3R)-5-oxo-9-oxa-6-aza-4(2,1)-piperidina-1(1,2),2(1,3)-dibenzenacyclo-nonaphane-4^3-yl)methanesulfonamide], the EC50 was 1 to 10 nM.

On to `CS(=O)(=O)N[C@H]1CCCN2C(=O)NCCOc3ccccc3-c3cccc(c3)C[C@@H]12` [Compound A1-4, N-((4^2S,4^3S)-5-oxo-9-oxa-6-aza-4(2,1)-piperidina-1(1,2),2(1,3)-dibenzenacyclo-nonaphane-4^3-yl)methanesulfonamide], for which the EC50 was 100 to 1000 nM.

Turning to `CCS(=O)(=O)N[C@H]1CCN2C(=O)NCCOc3ccccc3-c3cccc(c3)C[C@@H]12` [Compound A1-7, N-((4^2S,4^3S)-5-oxo-9-oxa-6-aza-4(2,1)-pyrrolidina-1-(1,2),2-(1,3)-dibenzenacyclo-nonaphane-4′-yl)ethanesulfonamide], the EC50 is 10 to 100 nM.

In the case of `CCS(=O)(=O)N[C@H]1CCN2C(=O)N(C)CCCCCc3ccccc3-c3cccc(c3)C[C@@H]12` [Compound A1-10, N-((4^2S,4^3S)-6-methyl-5-oxo-6-aza-4(2,1)-pyrrolidina-1(1,2),2(1,3)-dibenzena-cycloundecaphane-4^3-yl)ethanesulfonamide], the EC50 was 0.1 to 1 nM.

Take `CS(=O)(=O)NC1CCCN2C(=O)CCCc3ccccc3-c3cccc(c3)CC12` (stereo not drawn) [Compound A1-59]: the EC50 is 10 to 100 nM.

In the case of `CS(=O)(=O)N[C@H]1CCCN2C(=O)OCCOc3ccccc3-c3cccc(c3)C[C@@H]12` [Compound A1-60], the EC50 is 10 to 100 nM.

Turning to `CN1CCOc2ccccc2-c2cccc(c2)C[C@H]2[C@@H](NS(C)(=O)=O)CCN2C1=O` [Compound A1-61], the EC50 was 10 to 100 nM.

For `CS(=O)(=O)NC1CCCN2C(=O)OCCOc3ccccc3-c3cccc(c3)CC12` (stereo not drawn) [Compound A1-63], the EC50 was 10 to 100 nM.

Turning to `CS(=O)(=O)N[C@H]1CCCN2C(=O)CCCOc3ccccc3-c3cccc(c3)C[C@@H]12` [Compound A1-64], the EC50 was 10 to 100 nM.

Take `CCS(=O)(=O)NC1CCN2C(=O)N3CC[C@H]3COc3ccccc3-c3cccc(c3)CC12` (stereo partly drawn) [Compound A1-65]: the EC50 was 10 to 100 nM.

Consider `CS(=O)(=O)N[C@H]1CCN2C(=O)C(F)(F)CCCCCc3ccccc3-c3cccc(c3)C[C@@H]12` [Compound A1-66], for which the EC50 is 10 to 100 nM.

`CS(=O)(=O)N[C@H]1CCCN2C(=O)CCCc3ccccc3-c3cccc(c3)C[C@@H]12` [Compound A1-67]: the EC50 was 10 to 100 nM.

With `CS(=O)(=O)N[C@H]1CCCN2C(=O)CCOc3ccccc3-c3cccc(c3)C[C@@H]12` [Compound A1-68], the EC50 is 10 to 100 nM.

In the case of `CCS(=O)(=O)N[C@H]1CCN2C(=O)N(C)CCOc3ccccc3-c3cccc(c3)C[C@@H]12` [Compound A1-71], the EC50 is 10 to 100 nM.

Regarding `CCS(=O)(=O)N[C@H]1CCCN2C(=O)CCOc3ccccc3-c3cccc(c3)C[C@@H]12` [Compound A1-72], the EC50 was 1 to 10 nM.

As to `CS(=O)(=O)N[C@H]1CCCN2C(=O)NCCOc3ccccc3-c3cccc(c3F)C[C@@H]12` [Compound A1-73], the EC50 is 1 to 10 nM.

Regarding `CCS(=O)(=O)N[C@H]1CCCN2C(=O)CCOc3ccccc3-c3cccc(c3)C[C@@H]12` [Compound A1-74, N-((4^2,4^3S)-5-oxo-8-oxa-4(2,1)-piperidina-1(1,2),2(1.3)-dibenzenacyclo-octaphane-4^3-yl)ethanesulfonamide], the EC50 is 10 to 100 nM.

Turning to `CN(C)S(=O)(=O)N[C@@H]1CCCN2C(=O)CCOc3ccccc3-c3cccc(c3)C[C@H]12` [Compound A1-75], the EC50 was 10 to 100 nM.

As to `CN(C)S(=O)(=O)N[C@H]1CCCN2C(=O)CCOc3ccccc3-c3cccc(c3)C[C@@H]12` [Compound A1-76, N-((4^2S,4^3S)-5-oxo-8-oxa-4(2,1)-piperidina-1(1,2),2(1,3)-dibenzenacyclooctaphane-4^3-yl)-N,N-dimethylsulfuric diamide], the EC50 is 1 to 10 nM.

`CN(C)S(=O)(=O)N[C@H]1CCCN2C(=O)OCCOc3ccccc3-c3cccc(c3)C[C@@H]12` [Compound A1-77]: the EC50 was 10 to 100 nM.

Take `CS(=O)(=O)N[C@H]1CCCN2C(=O)CCOc3ccccc3-c3cccc(c3)C[C@@H]12` [Compound A1-78, N-((4^2S,4^3S)-5-oxo-8-oxa-4(2,1)-piperidina-1(1,2),2(1,3)-dibenzenacyclo-octaphane-4^3-yl)methanesulfonamide]: the EC50 was 1 to 10 nM.

For `CN(C)S(=O)(=O)N[C@H]1CCCN2C(=O)CCCc3ccccc3-c3cccc(c3)C[C@@H]12` [Compound A1-79], the EC50 was 1 to 10 nM.

As to `O=C1CCOc2ccccc2-c2cccc(c2)C[C@H]2[C@@H](NS(=O)(=O)CF)CCCN12` [Compound A1-80], the EC50 is 1 to 10 nM.

`CN1CCOc2ccccc2-c2cccc(c2)C[C@H]2[C@@H](NS(=O)(=O)N(C)C)[C@@H](F)CN2C1=O` [Compound A1-81]: the EC50 was 1 to 10 nM.

Consider `CS(=O)(=O)N[C@H]1CCCN2C(=O)CCOc3ccccc3-c3cccc(c3F)C[C@@H]12` [Compound A1-82, N-((4^2S,4^3S)-22-fluoro-5-oxo-8-oxa-4(2.1)-piperidina-1(1,2),2(1.3)-dibenzenacyclooctaphane-4^3-yl)methanesulfonamide], for which the EC50 is 1 to 10 nM.

On to `COc1c2cccc1-c1ccccc1OCCC(=O)N1CCC[C@H](NS(C)(=O)=O)[C@@H]1C2` [Compound A1-83], for which the EC50 is 1 to 10 nM.

As for `O=C1CCOc2ccccc2-c2cccc(c2)C[C@H]2[C@@H](NS(=O)(=O)C3CC3)CCCN12` [Compound A1-84], the EC50 was 0.1 to 1 nM.

On to `C[C@H]1COc2ccccc2-c2cccc(c2)C[C@H]2[C@@H](NS(C)(=O)=O)CCCN2C1=O` [Compound A1-85], for which the EC50 was 10 to 100 nM.

As to `COc1c2cccc1-c1ccccc1OCCN(C)C(=O)N1C[C@H](F)[C@H](NS(=O)(=O)CF)[C@@H]1C2` [Compound A1-86], the EC50 was 1 to 10 nM.

With `O=C1CCOc2ccccc2-c2cc(ccc2F)C[C@H]2[C@@H](NS(=O)(=O)CF)CCCN12` [Compound A1-87, 1-fluoro-N-((4^2S,4^3S)-26-fluoro-5-oxo-8-oxa-4(2,1)-piperidina-1(1,2),2(1,3)-dibenzenacyclooctaphane-4^3-yl)methanesulfonamide], the EC50 is 1 to 10 nM.

On to `COc1c2cccc1-c1ccccc1OCCNC(=O)N1C[C@H](F)[C@H](NS(=O)(=O)CF)[C@@H]1C2` [Compound A1-88], for which the EC50 was 10 to 100 nM.
